Measurements published in US20180338980A1, “AROMATIC SULFONAMIDE DERIVATIVES” (BAYER PHARMA AKTIENGESELLSCHAFT, priority 2015, published 2018).
Entries after “also recorded” stand apart in the source; their conditions may differ.

Columns and labels:
P2X4 [1] = molecular target: T1, P2X4 (Homo sapiens, UniProt Q99571); assay: Assay A: human P2X4 receptor cell line, FLIPR calcium assay (Fluo-8, agonist Bz-ATP at EC80); assay type: cell-based; parameters: host or cells: HEK 293 (recombinant, constitutively expressing; with mitochondrial photina in Assay B); conditions: HEK human P2X4 cells, Fluo-8 FLIPR; for IC50: Bz-ATP at EC80, average values; for Emax: percentage of maximal inhibition, read-out: human P2X4 Assay A avg Efficacy
T1 sequence (Q99571 1-388): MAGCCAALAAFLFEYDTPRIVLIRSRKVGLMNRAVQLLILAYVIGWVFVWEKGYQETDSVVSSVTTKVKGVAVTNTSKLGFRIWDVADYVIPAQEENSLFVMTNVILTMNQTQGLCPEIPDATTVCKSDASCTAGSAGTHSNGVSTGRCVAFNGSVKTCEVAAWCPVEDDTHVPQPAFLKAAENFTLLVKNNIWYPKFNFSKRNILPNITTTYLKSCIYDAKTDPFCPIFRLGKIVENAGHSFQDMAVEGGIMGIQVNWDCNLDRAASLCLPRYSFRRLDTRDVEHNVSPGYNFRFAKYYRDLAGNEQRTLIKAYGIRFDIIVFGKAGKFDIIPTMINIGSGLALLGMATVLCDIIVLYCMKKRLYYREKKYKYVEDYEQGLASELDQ
Summary of the method: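 Antagonism read as inhibition of the calcium response to EC80 Bz-ATP, by peak-over-basal Fluo-8 fluorescence over 120 s, normalized to DMSO wells. Human P2X4-HEK cells, dye-loaded 30 min in probenecid-containing HBSS/HEPES pH 7.4, received compound 30 min beforehand at room temperature, 0.5% DMSO final. Triplicates fitted for IC50, maximal inhibition and Hill slope.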

mouse P2X4 receptors = molecular target: T2, mouse P2X4 receptors (Mus musculus, UniProt Q9JJX6); assay: Assay B: mouse P2X4 receptor cell line, Fluo8 fluorescence FLIPR (agonist Bz-ATP at EC50); assay type: cell-based; conditions: HEK mouse P2X4 cell line, agonist Bz-ATP at EC50, average
T2 construct: host or cells: HEK 293 (recombinant, constitutively expressing)
T2 sequence (Q9JJX6 1-388): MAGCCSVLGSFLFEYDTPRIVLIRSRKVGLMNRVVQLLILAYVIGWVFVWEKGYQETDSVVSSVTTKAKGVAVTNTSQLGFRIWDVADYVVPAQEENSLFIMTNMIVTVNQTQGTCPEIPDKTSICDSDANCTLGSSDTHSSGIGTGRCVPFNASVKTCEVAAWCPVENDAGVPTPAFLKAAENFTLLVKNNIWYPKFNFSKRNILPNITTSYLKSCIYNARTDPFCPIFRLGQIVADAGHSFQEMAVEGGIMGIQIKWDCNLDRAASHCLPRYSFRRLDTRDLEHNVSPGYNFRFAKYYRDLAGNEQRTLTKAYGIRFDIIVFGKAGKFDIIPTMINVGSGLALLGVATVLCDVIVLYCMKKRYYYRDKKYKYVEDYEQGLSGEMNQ
Procedure: The identification of agonists and antagonists of the P2X4 receptor from humans and […] also the quantification of the activity of the compounds of the invention was performed by use of recombinant cell lines. […] The test cell lines constitutively express the mouse or human P2X4 receptors. Stimulation of the receptors with an agonist leads to a conformational change of P2X4 and influx of extracellular calcium ions through the ion channel. The cytoplasmatic calcium transient is detected via the calcium sensitive dye Fluo8 for the mouse P2×4 cell line or in case of the human P2×4 cell line a stably expressed calcium-sensitive photoprotein, mitochondrial photina, which, after reconstitution with the cofactor coelenterazine, emits light in dependence of calcium binding [Bovolenta S, Foti M, Lohmer S, Corazza S., J Biomol Screen. […] The strength of Fluo8 fluorescence signal or photina luminescence signal corresponds to the level of receptor activation. An inhibitor would decrease the signal depending on its potency and concentration.
On the day of the assay medium is exchanged by Fluo8 containing buffer for 30 minutes. In the fluorescence reader (FLIPR) test substances in various concentrations are added for 10 minutes. After baseline measurement the agonist Bz-ATP at EC50 concentration is applied and fluorescence is measured immediately.

P2X4 [2] = molecular target: T1, P2X4; assay: Assay B: human P2X4 receptor cell line, mitochondrial photina luminescence (agonist Bz-ATP at EC50); assay type: cell-based; parameters: host or cells: HEK 293 (recombinant, constitutively expressing; with mitochondrial photina in Assay B); conditions: HEK human P2X4 cell line, photina luminescence, agonist Bz-ATP at EC50, average; for Emax: read-out: human P2X4 Assay B avg Efficacy
Summary of the method: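 Bz-ATP at its EC50 activates human P2X4 stably expressed in a cell line that also carries the calcium-sensitive photoprotein mitochondrial photina (coelenterazine cofactor). Light emitted on calcium influx is measured straight away in a luminometer. Reduced luminescence indicates antagonism.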

P2X4 [3] = molecular target: T1, P2X4; assay: Human whole blood assay (human WBA): IL-13 production after LPS priming and ATP stimulation; assay type: cell-based; parameters: from tissue; host or cells: human whole blood of healthy female volunteers; conditions: IL-13 in human whole blood, LPS 100 ng/ml 2 h then ATP 3 mM 1 h; total concentration
Procedure: Human whole blood assay (human WBA) was prepared from the blood of healthy female volunteers. In this assay, the efficacy of P2X4 antagonists on the production of IL-13 in whole blood after ATP stimulation (3 mM for 1 h) following priming of the cells with lipopolysacaride (LPS, 100 ng/ml for 2 h) was evaluated. After incubation, supernatant was taken following centrifugation and the formation of IL-13 was assayed using standard ELISA kits. IC50 values were calculated using GraphPad PRISM program with nonlinear regression curve fit. Data are presented as total concentration.

PGE2 levels = PGE2 levels after CFA-induced inflammation in mice (hind paw tissue, ELISA); assay type: in vivo, mouse; conditions: single oral dose 12.5, 25, 50 mg/kg, 48 h after CFA, 1 h after dose
Procedure: Female c57bl/6 mice (Taconic) received intraplantar injection of complete Freund's adjuvant (CFA) (30 μl, 1 mg/ml, Sigma) into the left hind paw under isoflurane anesthesia. […] At termination of the experiments (48 h after CFA, 1 h after dose), hind paw tissue is collected for analysis of PGE2 levels (ELISA, Cayman Chemical item no. 514531).
(§1) Statistical analysis is performed with one-way analysis of variance, followed by Bonferroni's multiple comparison test vs. vehicle controls using the GraphPad PRISM software, *p<0.05, **p<0.01.

c57bl/6 mice = assay: CFA inflammation model with pain read out (dynamic weight bearing); assay type: in vivo, mouse; conditions: 50 mg/kg oral on day 1 and day 2 post-CFA, 24-48 h after CFA
Procedure: Wild type female c57bl/6 mice (Taconic) received intraplantar injection of complete Freund's adjuvant (CFA) (30 μl, 1 mg/ml, Sigma) into the left hind paw under isoflurane anesthesia. […] Spontaneous pain-related behavior in freely moving animals was assessed using the automated dynamic weight bearing device (DWB, Bioseb, France) according to published and validated protocols (Robinson et al., 2012; Tetreault et al., 2011; Gruen et al. 2014). For behavioral testing, the animal was placed inside a Plexiglas chamber and allowed to move freely within the apparatus for a 5 min period, subsequently pain behavior is recorded for a test period of another 5 min.
as §1

Row | IC50 (P2X4 [1]) [nM] | Emax (P2X4 [1]) [%] | IC50 (mouse P2X4 receptors) [µM] | mouse P2X4 Assay B avg Efficacy (mouse P2X4 receptors) [%] | IC50 (P2X4 [2]) [nM] | Emax (P2X4 [2]) [%] | IC50 (P2X4 [3]) [µM] | SMILES | PGE2 levels in inflamed hind paw after CFA injection (PGE2 levels) | spontaneous pain behavior assessed by DWB after CFA-induced inflammation (c57bl/6 mice)
1 | 58 | 71 | 0.149 | 45 | 25 | 80 | 2.54 | N#Cc1cccc(Oc2ccc(NC(=O)Cc3ccccc3Cl)cc2S(N)(=O)=O)c1 [Example 015, 2-(2-Chlorophenyl)-N-[4-(3-cyanophenoxy)-3-sulfamoylphenyl]acetamide] | – | –
2 | > 25000 | 47 | > 50 | 35 | 431 | 89 | – | NS(=O)(=O)c1cc(NC(=O)Cc2ccc(C(F)(F)F)cc2)ccc1OCc1ccccn1 [Example 152, N-[4-(Pyridin-2-ylmethoxy)-3-sulfamoylphenyl]-2-[4-(trifluoromethyl)phenyl]acetamide] | – | –
3 | 12 | 81 | > 50 | 25 | 47 | 58 | – | NS(=O)(=O)c1cc(NC(=O)Cc2ccccc2Cl)ccc1OCCc1cccc(Cl)c1 [Example 156, 2-(2-Chlorophenyl)-N-{4-[2-(3-chlorophenyl)ethoxy]-3-sulfamoylphenyl}acetamide] | – | –
4 | 10 | 71 | 1.03 | 62 | 40 | 67 | – | NS(=O)(=O)c1cc(NC(=O)Cc2ccccc2Cl)ccc1OCC1CCCC1 [Example 160, 2-(2-Chlorophenyl)-N-[4-(cyclopentylmethoxy)-3-sulfamoylphenyl]acetamide] | – | –
5 | – | 68 | 3.5 | 65 | – | 61 | – | NS(=O)(=O)c1cc(NC(=O)Cc2cc(F)ccc2Cl)ccc1OCC1CCOCC1 [Example 163, 2-(2-Chloro-5-fluorophenyl)-N-[3-sulfamoyl-4-(tetrahydro-2H-pyran-4-ylmethoxy)phenyl]acetamide] | – | –
6 | 121 | 72 | 0.947 | 60 | 278 | 83 | – | CN(C)C(=O)c1cccc(CC(=O)Nc2ccc(Oc3cccc(Cl)c3)c(S(N)(=O)=O)c2)c1 [Example 202, 3-(2-{[4-(3-Chlorophenoxy)-3-sulfamoylphenyl]amino}-2-oxoethyl)-N,N-dimethylbenzamide] | – | –
7 | 473 | 60 | ≥ 16 | 20 | 100 | 77 | – | NS(=O)(=O)c1cc(NC(=O)Cc2ccccc2Cl)ccc1OC1CCOCC1 [Example 207, 2-(2-Chlorophenyl)-N-[3-sulfamoyl-4-(tetrahydro-2H-pyran-4-yloxy)phenyl]acetamide] | – | –
8 | 472 | 63 | – | – | 78 | 56 | 30 | COc1ccc(CC(=O)Nc2ccc(Oc3ccc(Cl)cc3)c(S(N)(=O)=O)c2)cc1 [Example 229, N-[4-(4-Chlorophenoxy)-3-sulfamoylphenyl]-2-(4-methoxyphenyl)acetamide] | – | –
9 | 215 | 57 | 3.33 | 61 | 149 | 49 | – | NS(=O)(=O)c1cc(NC(=O)Cc2ccccc2Cl)ccc1OC1CCS(=O)(=O)C1 (stereo not shown) [Example 232, 2-(2-Chlorophenyl)-N-{4-[(1,1-dioxidotetrahydrothiophen-3-yl)oxy]-3-sulfamoylphenyl}acetamide] | – | –
10 | – | – | – | 51 | – | – | – | NS(=O)(=O)c1cc(NC(=O)Cc2ccccc2)ccc1Oc1cccc(Cl)c1 [Example 244, N-[4-(3-Chlorophenoxy)-3-sulfamoylphenyl]-2-phenylacetamide] | dose-dependently reduced PGE2 levels; also recorded: still in the range of PGE2 levels of PBS treated animals | significantly reduced spontaneous pain behavior
